row,melting point [°C],Compound
1,90.1,O=[N+]([O-])c1c(Br)nn(CC(O)CO)c1NCc1ccccc1 (centres undefined)
2,142 to 144,CCn1c(C(C)NS(=O)(=O)c2ccc(Cl)c(Cl)c2)cnc1Oc1ccc(C)cc1 (centres undefined)
3,196 to 197,CC(=O)Nc1c(-c2ccc(Cl)cc2)c2ccccc2n1C
4,157 to 158,O=C(Nc1ccccc1)C1=C(N2CCCCC2)COC1=O
5,116 to 118,CNC(=O)C(=NOC)c1cccc(Cl)c1COc1ccc(Sc2ccc(Cl)cc2)cn1
6,235 to 237,CCCCc1oc2ccccc2c1-c1ncc(-c2ccc3c(Br)c(OCc4nnn[nH]4)ccc3c2)o1
7,142,CCOC(=O)c1ccccc1N(CC(=O)OC(C)(C)C)C(=O)CNC(=O)Nc1cccc(C)c1
8,80 to 81,Cc1oc(-c2ccccc2)nc1CCC(=O)c1ccc(Br)cc1
9,118,c1ccc(COc2ccc(-n3nnnc3C3CC3)cc2)cc1
10,60,"Cc1ccc(S(=O)(=O)CC2COc3ccccc3O2)cc1 (single isomer, unassigned; (+))"
11,148,CC(=O)c1ccc(S(=O)(=O)N2CCCC2c2ccc(F)cc2)cc1 (racemic)
12,110,O=C(C#CCCc1cccc(CF)n1)Nc1ccc(F)cc1
13,208,Nc1ccnc(-c2nc(=O)c3ccccc3s2)c1
14,220 to 224,O=C(c1cc2cc([N+](=O)[O-])ccc2[nH]1)N1CCC(Cc2ccccc2)CC1
15,156 to 157,COc1cccc(CCOc2cccc(-c3cccc(C(=O)O)c3)n2)c1
16,133 to 135,OC(c1ccccn1)c1cc(C(F)(F)F)nc2c(C(F)(F)F)cccc12 (centres undefined)
17,253 to 255,NC(Cc1cc(CP(=O)(O)O)cc(-c2ccc(Cl)cc2)c1)C(=O)OCC=Cc1ccccc1 (centres undefined)
18,79 to 82,Cc1nc2ccc3c(c2o1)OC(CNC1CCC(c2c[nH]c4ccc(F)cc24)C1)CO3 (centres undefined)

row,melting point [°C],Compound
1,152 to 155,O=C(O)C(Oc1ccc(Cl)cc1)Oc1ccc(C2CCNc3ccccc32)cc1 (centres undefined)
2,140 to 141,COC(=O)C(Cc1cccs1)NC(=O)[C@H](Cc1cccc2ccccc12)NC(=O)OCc1ccccc1 (mixture of isomers)
3,97 to 100,COc1ccc(Cl)cc1C(=O)NCCc1ccc(CCCCCCCCCC(=O)O)cc1
4,105 to 106,CCON=C(C)c1ccc2c(c1)ncn2-c1cccc(-c2cccnc2)c1
5,121 to 123,CCOC(=O)c1cc(=O)c(-c2ccc(OC)cc2)co1
6,95.7 to 96.7,OCCC#Cc1cnc2ccccc2c1
7,171 to 173,Cc1c(C=NO)c2ccccc2n1-c1ccc(O)cc1
8,122 to 124,COc1ccc(Cn2nnc(-c3cccc(C(=O)Cl)c3)n2)cc1
9,168 to 170,COC(=O)CCc1ccc(-n2c(C)cn(-c3ccc(C#N)cc3)c2=O)cc1
10,180 to 182,Cc1cc(=O)n2cccc(OCc3ccc(Cl)cc3Cl)c2n1
11,62 to 65,Cn1nc(-c2ccc(F)cc2)c(-c2ccncc2)c1C(O)CCc1ccccc1 (centres undefined)
12,133 to 136,Cc1cccc(-c2[nH]c(C(C)C)nc2-c2cccc(-c3ccc(NS(=O)(=O)C4CC4)cn3)c2)n1
13,193 to 195,CC(C)C[C@H](NC(=O)c1ccc2c(c1)Nc1ccccc1S2)C(=O)N[C@H]1CCOC1OC(=O)c1ccccc1 (some centres undefined)
14,72 to 75,OCc1cccc2cc(Br)ccc12
15,129 to 130,CC(=O)c1ccc(NS(=O)(=O)N(C)C)cc1
16,67 to 68,CCOC(=O)CCc1oc(-n2ccnc2)nc1-c1ccc(Cl)cc1
17,195 to 196,O=C(Nc1ccc(Oc2ccnc(N3CCC4(CC3)OCCO4)n2)c2ccccc12)c1cc(F)cc(N2CCCCC2)c1
18,84,CCOC(=O)N1Cc2ccccc2C(Oc2ccc(C(F)(F)F)cc2)C1 (centres undefined)

# Second part, the molecule before the results:
row,Compound,melting point [°C]
1,Cc1ccc(C(=O)[C@H]2C[C@H]2C(=O)O)cc1 (relative stereo),165 to 166
2,Cc1ccc(C2COc3c(C)c(C)cc(C)c32)cc1 (centres undefined),65 to 66
3,CC(=O)C(C)(C)c1nsc2ccc(-n3c(=O)cc(C(F)(F)F)n(C)c3=O)cc12,195 to 196
4,NS(=O)(=O)Oc1ccccc1Cl,62.5 to 63.5
5,COc1ccc(CN(C)CCCOc2ccc(S(=O)(=O)c3c(C(C)C)n(C)c4ccccc34)cc2)cc1OC,105
6,CSC(C[N+](=O)[O-])NCCSCc1cc(C)c(CN(C)C)s1 (centres undefined),69 to 71
7,CC(=O)OC1(C)CCC2C(C)(C)CCCC2(C)C1CCC(C)(O)C1CO1 (centres undefined),130 to 131
8,C[C@@H]1N=C(c2ccccc2)c2cc([N+](=O)[O-])ccc2N(C)C1=O,84 to 85
9,O=S1(=O)c2ccccc2N(c2ccc(-c3nc4ccccc4n3-c3ccccc3)cc2)c2ccccc21,286 to 288
10,O=CN1CCSc2ccccc2C1,84 to 87
11,CC(=O)OC1CSC(Sc2ccc(C(F)(F)F)cc2)C(OC(C)=O)C1OC(C)=O (centres undefined),160
12,NC(C=Cc1cccs1)=NO,92
13,Cc1cc(O)c(C(C)(C)C)cc1SC(Sc1cc(C(C)(C)C)c(O)cc1C)Sc1cc(C(C)(C)C)c(O)cc1C,204 to 205
14,N#Cc1cnccc1-c1c(-c2ccccc2)nn2ccccc12,208 to 210
15,OCc1csc(N2CCSCC2)n1,83 to 84
16,CCOC(=O)c1cn(C2CC2)c2c(C)c(N3CCN(C)CC3)c(F)c(C)c2c1=O,146 to 147
17,CCC1CC2C3CCC4=CC(=O)CCC4=C3C=CC2(C)C1OC(C)=O (centres undefined),95 to 98

row,Compound,melting point [°C]
1,Cc1cc(S(=O)(=O)c2cc(C)c(O)c(C3CCCCC3)c2)cc(C2CCCCC2)c1O,264 to 265
2,COc1ccc(-c2nc(-c3ccc4oc(=O)[nH]c4c3)cs2)cc1OC,271 to 272
3,O=C1NCCN1Cc1c(Cl)cccc1Cl,156 to 158
4,CN1CC[C@@H](c2c(O)cc(O)c3c(=O)cc(-c4ccccc4I)oc23)[C@@H]1CO,233 to 235
5,C=CCOc1cc(NC(=O)C2=C(C(=O)N(C)C)CCCC2)ccc1Cl,129 to 131
6,COc1cc(C(C)C)ccc1C1COc2c(C)c(C)c(Br)c(C)c21 (centres undefined),102 to 103
7,Nc1nn(Cc2ccccc2)c2nc(N3CCOCC3)cc(-c3ccccc3)c12,147 to 150
8,Cc1c2n(c3ccccc13)C(=O)C(CO)(Cc1ncn(C(c3ccccc3)(c3ccccc3)c3ccccc3)c1C)CC2 (centres undefined),85 to 88
9,O=C1Nc2ccc(C3CCCCC3)cc2C12OCCO2,178 to 180
10,CC(C)(C)OC(=O)N1C[C@@H]([C@H](O)CO)CC1=O,92 to 94
11,CN1C(=O)CC[C@]2(C)c3ccc(C=Cc4cnc5ccccc5c4)cc3CC[C@@H]12,181 to 183
12,Cn1ccnc1Sc1ccc(Nc2c(C#N)cnc3cc(/C=C/CN4CCOCC4)ccc23)cc1Cl,235 to 240
13,CC1C(=O)N(Cc2ccccc2)C(=S)N1c1ccc(Oc2ccccc2)cc1 (centres undefined),62
14,CCN(C(=O)COC(C)=O)C1=CC(C)(C)CC(C)=C1,38 to 40
15,CCOC(=O)c1c2n(c3cc(Cl)c(F)cc3c1=O)C(COC1CCCCO1)CS2 (centres undefined),183 to 186
16,COC(CCOS(=O)(=O)c1ccc(C)cc1)CCOS(=O)(=O)c1ccc(C)cc1,58
